Source: ChEMBL document CHEMBL5260810, “Inhibition of bromodomain-containing protein 9 for the prevention of epigenetically-defined drug resistance” (Bioorg Med Chem Lett, 2017)

Tests used:
[1] = biological target: T1, Bromodomain-containing protein 4 (Homo sapiens, UniProt O60885); experiment: Displacement of biotinylated small-molecule ligand from recombinant His-tagged BRD4 bromodomain 2 (unknown origin) measured after 10 mins by TR-FRET assay
LXFL 529 = experiment: Cytotoxicity against human LXFL 529 cells measured after 8 days; format: functional, cell-based; conditions: LXFL 529, 192 h
KG-1 = experiment: Cytotoxicity against human KG-1 cells measured after 8 days; format: functional, cell-based; conditions: KG-1, 192 h
KARPAS-422 = experiment: Cytotoxicity against human KARPAS-422 cells measured after 8 days; format: functional, cell-based; conditions: KARPAS-422, 192 h
[2] = Cytotoxicity against human TC71 cells measured after 8 days; format: functional, cell-based; conditions: TC-71, 192 h
NCI-H889 = experiment: Cytotoxicity against human NCI-H889 cells measured after 8 days; format: functional, cell-based; conditions: NCI-H889, 192 h
[3] = Cytotoxicity against human RERF-LC-KJ cells measured after 8 days; format: functional, cell-based; conditions: 192 h
[4] = Cytotoxicity against human RERF-LC-OK cells measured after 8 days; format: functional, cell-based; conditions: 192 h
[5] = Cytotoxicity against human NCE-G 140 cells measured after 8 days; format: functional, cell-based; conditions: NCE-G 140, 192 h
[6] = Cytotoxicity against human NCE-G 61 cells measured after 8 days; format: functional, cell-based; conditions: NCE-G 61, 192 h
A20 = experiment: Cytotoxicity against mouse A20 cells measured after 8 days; format: functional, cell-based; conditions: A20, 192 h
HT = experiment: Cytotoxicity against human HT cells measured after 8 days; format: functional, cell-based; conditions: 192 h
Rec1 = experiment: Cytotoxicity against human REC1 cells measured after 8 days; format: functional, cell-based; conditions: Rec1, 192 h
Hs 683 = experiment: Cytotoxicity against human Hs 683 cells measured after 8 days; format: functional, cell-based; conditions: Hs 683, 192 h
LN-229 = experiment: Cytotoxicity against human LN-229 cells measured after 8 days; format: functional, cell-based; conditions: LN-229, 192 h
[7] = Cytotoxicity against human NB(TU)1 cells measured after 8 days; format: functional, cell-based; conditions: NB(TU)1, 192 h
SF-539 = experiment: Cytotoxicity against human SF-539 cells measured after 8 days; format: functional, cell-based; conditions: SF-539, 192 h
SU-DHL-5 = experiment: Cytotoxicity against human SU-DHL-5 cells measured after 8 days; format: functional, cell-based; conditions: SU-DHL-5, 192 h
[8] = Cytotoxicity against human COV413A cells measured after 8 days; format: functional, cell-based; conditions: 192 h
HCC1187 = experiment: Cytotoxicity against human HCC1187 cells measured after 8 days; format: functional, cell-based; conditions: HCC1187, 192 h
KURAMOCHI = experiment: Cytotoxicity against human KURAMOCHI cells measured after 8 days; format: functional, cell-based; conditions: 192 h
[9] = Cytotoxicity against human OVCA 420 cells measured after 8 days; format: functional, cell-based; conditions: OVCA 420, 192 h
MCF-10A = experiment: Cytotoxicity against human MCF-10A cells measured after 8 days; format: functional, cell-based; conditions: 192 h
MDA-MB-175-VII = experiment: Cytotoxicity against human MDA-MB-175-VII cells measured after 8 days; format: functional, cell-based; conditions: 192 h
[10] = Cytotoxicity against human RKN cells measured after 8 days; format: functional, cell-based; conditions: 192 h
CFPAC-1 = experiment: Cytotoxicity against human CFPAC-1 cells measured after 8 days; format: functional, cell-based; conditions: CFPAC-1, 192 h
Hs 766 = experiment: Cytotoxicity against human Hs 766 cells measured after 8 days; format: functional, cell-based; conditions: Hs 766, 192 h
HuP-T3 = experiment: Cytotoxicity against human HuP-T3 cells measured after 8 days; format: functional, cell-based; conditions: HuP-T3, 192 h
[11] = Cytotoxicity against human BT-B cells measured after 8 days; format: functional, cell-based; conditions: 192 h
C-33-A = experiment: Cytotoxicity against human C-33-A cells measured after 8 days; format: functional, cell-based; conditions: 192 h
[12] = Cytotoxicity against human KPP-1 cells measured after 8 days; format: functional, cell-based; conditions: KPP-1, 192 h
[13] = Cytotoxicity against human 51BLim 10 cells measured after 8 days; format: functional, cell-based; conditions: 51BLim 10, 192 h
[14] = Cytotoxicity against human PK-45P cells measured after 8 days; format: functional, cell-based; conditions: 192 h
[15] = Cytotoxicity against human QGP-1 cells measured after 8 days; format: functional, cell-based; conditions: QGP-1, 192 h
[16] = Cytotoxicity against human SW403 cells measured after 8 days; format: functional, cell-based; conditions: SW-403, 192 h
[17] = Cytotoxicity against human COLO 794 cells measured after 8 days; format: functional, cell-based; conditions: COLO 794, 192 h
COLO-680N = experiment: Cytotoxicity against human COLO-680N cells measured after 8 days; format: functional, cell-based; conditions: 192 h
[18] = Cytotoxicity against human DEOC-1 cells measured after 8 days; format: functional, cell-based; conditions: DEOC-1, 192 h
Hs 695T = experiment: Cytotoxicity against human Hs 695T cells measured after 8 days; format: functional, cell-based; conditions: 192 h
HCT-8 = experiment: Cytotoxicity against human HCT-8 cells measured after 8 days; format: functional, cell-based; conditions: HCT-8, 192 h
BFTC-909 = experiment: Cytotoxicity against human BFTC-909 cells measured after 8 days; format: functional, cell-based; conditions: BFTC-909, 192 h
IPC-298 = experiment: Cytotoxicity against human IPC-298 cells measured after 8 days; format: functional, cell-based; conditions: IPC-298, 192 h
SK-MEL-1 = experiment: Cytotoxicity against human SK-MEL-1 cells measured after 8 days; format: functional, cell-based; conditions: SK-MEL-1, 192 h
[19] = Cytotoxicity against human SK23 cells measured after 8 days; format: functional, cell-based; conditions: SK-MEL-23, 192 h
WM 266-4 = experiment: Cytotoxicity against human WM266-4 cells measured after 8 days; format: functional, cell-based; conditions: WM 266-4, 192 h
[20] = Cytotoxicity against human HuH-1 cells measured after 8 days; format: functional, cell-based; conditions: HuH-1, 192 h
[21] = Cytotoxicity against human JHH-2 cells measured after 8 days; format: functional, cell-based; conditions: JHH-2, 192 h
[22] = Cytotoxicity against human JHH-4 cells measured after 8 days; format: functional, cell-based; conditions: JHH-4, 192 h
SK-HEP1 = experiment: Cytotoxicity against human SK-HEP1 cells measured after 8 days; format: functional, cell-based; conditions: SK-HEP1, 192 h
HGC-27 = experiment: Cytotoxicity against human HGC-27 cells measured after 8 days; format: functional, cell-based; conditions: HGC-27, 192 h
Hs746T = experiment: Cytotoxicity against human Hs746T cells measured after 8 days; format: functional, cell-based; conditions: 192 h
[23] = Cytotoxicity against human KE-97 cells measured after 8 days; format: functional, cell-based; conditions: KE-97, 192 h
MKN-74 = experiment: Cytotoxicity against human MKN-74 cells measured after 8 days; format: functional, cell-based; conditions: MKN-74, 192 h
NCI-N87 = experiment: Cytotoxicity against human NCI-N87 cells measured after 8 days; format: functional, cell-based; conditions: NCI-N87, 192 h
[24] = Cytotoxicity against human SNU-601 cells measured after 8 days; format: functional, cell-based; conditions: SNU-601, 192 h
[25] = Cytotoxicity against human SNU-620 cells measured after 8 days; format: functional, cell-based; conditions: SNU620, 192 h
8305C = experiment: Cytotoxicity against human 8305C cells measured after 8 days; format: functional, cell-based; conditions: 192 h
[26] = Cytotoxicity against human UM-UC-1 cells measured after 8 days; format: functional, cell-based; conditions: UM-UC-1, 192 h
[27] = Cytotoxicity against human HEC-265 cells measured after 8 days; format: functional, cell-based; conditions: HEC-265, 192 h
SNG-M = experiment: Cytotoxicity against human SNG-M cells measured after 8 days; format: functional, cell-based; conditions: 192 h
[28] = biological target: T1, Bromodomain-containing protein 4; experiment: Binding affinity to human partial length BRD4 bromodomain 1 long isoform (N44 to E168 residues) expressed in bacterial expression system by BROMOscan assay

SMILES: C/C=C/Cn1cc(-c2ccc(C(=O)N3CCOCC3)cc2)c2cc[nH]c2c1=O
- IC50 [1]: 8.3 µM
- IC50 (LXFL 529): 20 µM
- IC50 (KG-1): 20 µM
- IC50 (KARPAS-422): 14.4 µM
- IC50 [2]: 11.1 µM
- IC50 (NCI-H889): 20 µM
- IC50 [3]: 20 µM
- IC50 [4]: 20 µM
- IC50 [5]: 20 µM
- IC50 [6]: 20 µM
- IC50 (A20): 7 µM
- IC50 (HT): 20 µM
- IC50 (Rec1): 20 µM
- IC50 (Hs 683): 20 µM
- IC50 (LN-229): 20 µM
- IC50 [7]: 20 µM
- IC50 (SF-539): 20 µM
- IC50 (SU-DHL-5): 14.8 µM
- IC50 [8]: 20 µM
- IC50 (HCC1187): 20 µM
- IC50 (KURAMOCHI): 20 µM
- IC50 [9]: 20 µM
- IC50 (MCF-10A): 20 µM
- IC50 (MDA-MB-175-VII): 20 µM
- IC50 [10]: 20 µM
- IC50 (CFPAC-1): 20 µM
- IC50 (Hs 766): 20 µM
- IC50 (HuP-T3): 20 µM
- IC50 [11]: 20 µM
- IC50 (C-33-A): 20 µM
- IC50 [12]: 10.9 µM
- IC50 [13]: 12.2 µM
- IC50 [14]: 20 µM
- IC50 [15]: 20 µM
- IC50 [16]: 20 µM
- IC50 [17]: 20 µM
- IC50 (COLO-680N): 20 µM
- IC50 [18]: 20 µM
- IC50 (Hs 695T): 20 µM
- IC50 (HCT-8): 20 µM
- IC50 (BFTC-909): 20 µM
- IC50 (IPC-298): 18.6 µM
- IC50 (SK-MEL-1): 20 µM
- IC50 [19]: 20 µM
- IC50 (WM 266-4): 20 µM
- IC50 [20]: 20 µM
- IC50 [21]: 20 µM
- IC50 [22]: 20 µM
- IC50 (SK-HEP1): 20 µM
- IC50 (HGC-27): 16.9 µM
- IC50 (Hs746T): 20 µM
- IC50 [23]: 20 µM
- IC50 (MKN-74): 20 µM
- IC50 (NCI-N87): 20 µM
- IC50 [24]: 20 µM
- IC50 [25]: 20 µM
- IC50 (8305C): 20 µM
- IC50 [26]: 20 µM
- IC50 [27]: 20 µM
- IC50 (SNG-M): 20 µM
- Kd [28]: 1.7 µM

SMILES: C/C=C/Cn1cc(-c2cc(OC)c(C(C)(C)O)cc2OC)c2cc(C)[nH]c2c1=O
- IC50 [1]: > 20 µM
- Kd [28]: 9.4 µM

SMILES: C/C=C/Cn1cc(-c2cc(OC)c(C(=O)N3CCOCC3)cc2OC)c2cc(C)[nH]c2c1=O
- IC50 [1]: > 20 µM
- IC50 (KARPAS-422): 2 µM
- IC50 [4]: 2 µM
- IC50 (HT): 2 µM
- IC50 [23]: 2 µM
- Kd [28]: > 10 µM

SMILES: C/C=C/Cn1cc(-c2ccc(C(C)(C)O)cc2OC)c2cc[nH]c2c1=O
- IC50 [1]: > 20 µM
- IC50 (LXFL 529): 20 µM
- IC50 (KG-1): 20 µM
- IC50 (KARPAS-422): 20 µM
- IC50 [2]: 13.9 µM
- IC50 (NCI-H889): 20 µM
- IC50 [3]: 20 µM
- IC50 [4]: 20 µM
- IC50 [5]: 20 µM
- IC50 [6]: 20 µM
- IC50 (A20): 3.43 µM
- IC50 (HT): 20 µM
- IC50 (Rec1): 16.4 µM
- IC50 (Hs 683): 20 µM
- IC50 (LN-229): 20 µM
- IC50 [7]: 20 µM
- IC50 (SF-539): 20 µM
- IC50 (SU-DHL-5): 10.3 µM
- IC50 [8]: 20 µM
- IC50 (HCC1187): 20 µM
- IC50 (KURAMOCHI): 20 µM
- IC50 [9]: 20 µM
- IC50 (MCF-10A): 11.4 µM
- IC50 (MDA-MB-175-VII): 20 µM
- IC50 [10]: 20 µM
- IC50 (CFPAC-1): 20 µM
- IC50 (Hs 766): 20 µM
- IC50 (HuP-T3): 14.1 µM
- IC50 [11]: 20 µM
- IC50 (C-33-A): 20 µM
- IC50 [12]: 20 µM
- IC50 [13]: 20 µM
- IC50 [14]: 20 µM
- IC50 [15]: 20 µM
- IC50 [16]: 20 µM
- IC50 [17]: 20 µM
- IC50 (COLO-680N): 20 µM
- IC50 [18]: 20 µM
- IC50 (Hs 695T): 20 µM
- IC50 (HCT-8): 20 µM
- IC50 (BFTC-909): 20 µM
- IC50 (IPC-298): 20 µM
- IC50 (SK-MEL-1): 20 µM
- IC50 [19]: 6.07 µM
- IC50 (WM 266-4): 20 µM
- IC50 [20]: 20 µM
- IC50 [21]: 20 µM
- IC50 [22]: 20 µM
- IC50 (SK-HEP1): 20 µM
- IC50 (HGC-27): 14.4 µM
- IC50 (Hs746T): 20 µM
- IC50 [23]: 20 µM
- IC50 (MKN-74): 20 µM
- IC50 (NCI-N87): 20 µM
- IC50 [24]: 20 µM
- IC50 [25]: 20 µM
- IC50 (8305C): 20 µM
- IC50 [26]: 20 µM
- IC50 [27]: 20 µM
- IC50 (SNG-M): 20 µM
- Kd [28]: 1.6 µM
